PubChem BioAssay (NCI)
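How tested: cells in 96-well plates exposed to compound for 48 hours at five concentrations. TGI: concentration producing complete growth inhibition.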

Experiments:
Experiment in all cases: NCI tumour cell line growth inhibition, 48 h
786-0 renal = tested on: 786-0 renal
A498 renal = tested on: A498 renal
A549 NSCLC = tested on: A549 NSCLC
ACHN renal = tested on: ACHN renal
CCRF-CEM leukemia = tested on: CCRF-CEM leukemia
COLO 205 colon = tested on: COLO 205 colon
DU-145 prostate = tested on: DU-145 prostate
EKVX NSCLC = tested on: EKVX NSCLC
HCC-2998 colon = tested on: HCC-2998 colon
HCT-15 colon = tested on: HCT-15 colon
HL-60(TB) leukemia = tested on: HL-60(TB) leukemia
HOP-62 NSCLC = tested on: HOP-62 NSCLC
HOP-92 NSCLC = tested on: HOP-92 NSCLC
IGROV1 ovarian = tested on: IGROV1 ovarian
K-562 leukemia = tested on: K-562 leukemia
LOX IMVI melanoma = tested on: LOX IMVI melanoma
M14 melanoma = tested on: M14 melanoma
MALME-3M melanoma = tested on: MALME-3M melanoma
MCF7 breast = tested on: MCF7 breast
MDA-MB-231 breast = tested on: MDA-MB-231 breast
MDA-MB-435 = tested on: MDA-MB-435
MDA-N = tested on: MDA-N
MOLT-4 leukemia = tested on: MOLT-4 leukemia
NCI-H226 lung = tested on: NCI-H226 lung
NCI-H23 lung = tested on: NCI-H23 lung
NCI/ADR-RES ovarian = tested on: NCI/ADR-RES ovarian
OVCAR-4 ovarian = tested on: OVCAR-4 ovarian
OVCAR-5 ovarian = tested on: OVCAR-5 ovarian
OVCAR-8 ovarian = tested on: OVCAR-8 ovarian
PC-3 prostate = tested on: PC-3 prostate
RXF 393 renal = tested on: RXF 393 renal
SF-268 CNS = tested on: SF-268 CNS
SF-295 CNS = tested on: SF-295 CNS
SK-MEL-28 melanoma = tested on: SK-MEL-28 melanoma
SK-MEL-5 melanoma = tested on: SK-MEL-5 melanoma
SK-OV-3 ovarian = tested on: SK-OV-3 ovarian
SN12C renal = tested on: SN12C renal
SNB-19 CNS = tested on: SNB-19 CNS
SR leukemia = tested on: SR leukemia
SW-620 colon = tested on: SW-620 colon
T-47D breast = tested on: T-47D breast
TK-10 renal = tested on: TK-10 renal
U251 CNS = tested on: U251 CNS
UACC-257 melanoma = tested on: UACC-257 melanoma
UACC-62 melanoma = tested on: UACC-62 melanoma

## COc1cccc2c1C(=O)c1c(O)c3c(c(O)c1C2=O)CC(O)(C(O)CO)CC3OC1CC2C(OC3COCC(C#N)N32)C(C)O1 (stereo not given)
786-0 renal
  TGI: 28.2 nM
A498 renal
  TGI: < 10 nM
A549 NSCLC
  TGI: > 100000 nM
ACHN renal
  TGI: 213 nM
CCRF-CEM leukemia
  TGI: < 10 nM
COLO 205 colon
  TGI: < 10 nM
DU-145 prostate
  TGI: 406 nM
EKVX NSCLC
  TGI: 64.4 nM
HCC-2998 colon
  TGI: < 10 nM
HCT-15 colon
  TGI: 1040 nM
HL-60(TB) leukemia
  TGI: < 10 nM
HOP-62 NSCLC
  TGI: 43.2 nM
HOP-92 NSCLC
  TGI: < 10 nM
IGROV1 ovarian
  TGI: < 10 nM
K-562 leukemia
  TGI: < 10 nM
LOX IMVI melanoma
  TGI: 12.5 nM
M14 melanoma
  TGI: < 10 nM
MALME-3M melanoma
  TGI: < 10 nM
MCF7 breast
  TGI: 2150 nM
MDA-MB-231 breast
  TGI: 13.9 nM
MDA-MB-435
  TGI: < 10 nM
MDA-N
  TGI: < 10 nM
MOLT-4 leukemia
  TGI: < 10 nM
NCI-H226 lung
  TGI: < 10 nM
NCI-H23 lung
  TGI: < 10 nM
NCI/ADR-RES ovarian
  TGI: < 10 nM
OVCAR-4 ovarian
  TGI: < 10 nM
OVCAR-5 ovarian
  TGI: 4310 nM
OVCAR-8 ovarian
  TGI: 1710 nM
PC-3 prostate
  TGI: 19.4 nM
RXF 393 renal
  TGI: < 10 nM
SF-268 CNS
  TGI: 32.4 nM
SF-295 CNS
  TGI: > 100000 nM
SK-MEL-28 melanoma
  TGI: < 10 nM
SK-MEL-5 melanoma
  TGI: < 10 nM
SK-OV-3 ovarian
  TGI: 72.7 nM
SN12C renal
  TGI: 1470 nM
SNB-19 CNS
  TGI: 14.4 nM
SR leukemia
  TGI: > 100000 nM
SW-620 colon
  TGI: 13500 nM
T-47D breast
  TGI: < 10 nM
TK-10 renal
  TGI: < 10 nM
U251 CNS
  TGI: 130 nM
UACC-257 melanoma
  TGI: < 10 nM
UACC-62 melanoma
  TGI: < 10 nM
